# Measurements reported in ChEMBL document CHEMBL1201862, “PubChem BioAssay data set” (2004).
#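 Cultured in 96-well plates, cells were exposed to test compound for 48 hours across five concentrations. At the GI50, growth is halved.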 The source made the active and inactive calls. No stated cut-off is given here; in the data, active = GI50 up to about 1.1 µM and inactive = higher.
# Assays:
# Test in all cases: NCI tumour cell line growth inhibition, 48 h
# DMS-114 = tested on: DMS-114
# HOP-18 = tested on: HOP-18
# SNB-78 = tested on: SNB-78
# DMS-273 = tested on: DMS-273
# KM-20L2 = tested on: KM-20L2
# LXFL 529 = tested on: LXFL 529
# XF498 = tested on: XF498
# RXF 631 = tested on: RXF 631
Compound,GI50 (DMS-114),GI50 (HOP-18),GI50 (SNB-78),GI50 (DMS-273),GI50 (KM-20L2),GI50 (LXFL 529),GI50 (XF498),GI50 (RXF 631)
CNC(=O)OCc1nc(SSc2nc(COC(=O)NC)c(COC(=O)NC)n2C)n(C)c1COC(=O)NC,> 100 µM (inactive),> 100 µM (inactive),> 100 µM (inactive),> 100 µM (inactive),> 100 µM (inactive),> 100 µM (inactive),> 100 µM (inactive),> 100 µM (inactive)
CSc1c(C)c(C)nn1-c1ccccc1,> 100 µM (inactive),< 0.01 µM (active),> 100 µM (inactive),> 100 µM (inactive),> 100 µM (inactive),> 100 µM (inactive),59.8 µM (inactive),> 100 µM (inactive)
CCCCCCCCCCCC(=O)C1=C(O)CC(O)CC1=O (centres undefined),64.3 µM (inactive),> 100 µM (inactive),> 100 µM (inactive),84.3 µM (inactive),> 100 µM (inactive),83.6 µM (inactive),> 100 µM (inactive),> 100 µM (inactive)
